In ChEMBL document CHEMBL3822445, “Histone demethylating agents as potential S-adenosyl-l-methionine-competitors” (Medchemcomm, 2016):
Active and inactive are the calls of the source. The rule behind the calls is not given here.

Experiments:
[1] = Antiproliferative activity against human Ovarian cancer LA#110 cells assessed as cell survival at 20 uM after 72 hrs by MTT assay relative to control; assay type: functional; conditions: read-out: Survival
[2] = Antiproliferative activity against human Ovarian cancer DC#110 cells assessed as cell survival at 20 uM after 72 hrs by MTT assay relative to control; assay type: functional; conditions: read-out: Survival
[3] = Antiproliferative activity against human Ovarian cancer DC#83 cells assessed as cell survival at 20 uM after 72 hrs by MTT assay relative to control; assay type: functional; conditions: read-out: Survival
[4] = Antiproliferative activity against human Ovarian cancer LA#83 cells assessed as cell survival at 20 uM after 72 hrs by MTT assay relative to control; assay type: functional; conditions: read-out: Survival
MCF7 [5] = experiment: Cell cycle arrest in human MCF7 cells assessed as accumulation at G2/M phase at 15 uM after 72 hrs by flow cytometry relative to control; assay type: functional
MCF7 [6] = experiment: Antiproliferative activity against human MCF7 cells after 48 to 72 hrs by MTT assay; assay type: functional, cell-based
MCF7 [7] = experiment: Inhibition of DNA methylation in human MCF7 cells assessed as reduction in H3K9me3 levels at 15 uM after 48 hrs by Western blot analysis; assay type: cell-based
MCF7 [8] = experiment: Induction of apoptosis in human MCF7 cells assessed as necrotic cells at 15 uM after 48 hrs by AnnexinV-FITC staining based flow cytometry (reference value: 10.2 +/- 1.9 %); assay type: functional
MCF7 [9] = experiment: Induction of apoptosis in human MCF7 cells assessed as viable cells at 15 uM after 72 hrs by AnnexinV-FITC staining based flow cytometry (reference value: 60.5 +/- 6 %); assay type: functional; conditions: MCF7, 72 h, read-out: Activity
[10] = target: T1, Histone-lysine N-methyltransferase EHMT2 (Homo sapiens) (UniProt Q96KQ7); experiment: Inhibition of G9a in human MCF7 nuclear extracts assessed as reduction in H3K27 levels at 15 uM after 48 hrs; assay type: cell-based
T1 sequence (whole entry): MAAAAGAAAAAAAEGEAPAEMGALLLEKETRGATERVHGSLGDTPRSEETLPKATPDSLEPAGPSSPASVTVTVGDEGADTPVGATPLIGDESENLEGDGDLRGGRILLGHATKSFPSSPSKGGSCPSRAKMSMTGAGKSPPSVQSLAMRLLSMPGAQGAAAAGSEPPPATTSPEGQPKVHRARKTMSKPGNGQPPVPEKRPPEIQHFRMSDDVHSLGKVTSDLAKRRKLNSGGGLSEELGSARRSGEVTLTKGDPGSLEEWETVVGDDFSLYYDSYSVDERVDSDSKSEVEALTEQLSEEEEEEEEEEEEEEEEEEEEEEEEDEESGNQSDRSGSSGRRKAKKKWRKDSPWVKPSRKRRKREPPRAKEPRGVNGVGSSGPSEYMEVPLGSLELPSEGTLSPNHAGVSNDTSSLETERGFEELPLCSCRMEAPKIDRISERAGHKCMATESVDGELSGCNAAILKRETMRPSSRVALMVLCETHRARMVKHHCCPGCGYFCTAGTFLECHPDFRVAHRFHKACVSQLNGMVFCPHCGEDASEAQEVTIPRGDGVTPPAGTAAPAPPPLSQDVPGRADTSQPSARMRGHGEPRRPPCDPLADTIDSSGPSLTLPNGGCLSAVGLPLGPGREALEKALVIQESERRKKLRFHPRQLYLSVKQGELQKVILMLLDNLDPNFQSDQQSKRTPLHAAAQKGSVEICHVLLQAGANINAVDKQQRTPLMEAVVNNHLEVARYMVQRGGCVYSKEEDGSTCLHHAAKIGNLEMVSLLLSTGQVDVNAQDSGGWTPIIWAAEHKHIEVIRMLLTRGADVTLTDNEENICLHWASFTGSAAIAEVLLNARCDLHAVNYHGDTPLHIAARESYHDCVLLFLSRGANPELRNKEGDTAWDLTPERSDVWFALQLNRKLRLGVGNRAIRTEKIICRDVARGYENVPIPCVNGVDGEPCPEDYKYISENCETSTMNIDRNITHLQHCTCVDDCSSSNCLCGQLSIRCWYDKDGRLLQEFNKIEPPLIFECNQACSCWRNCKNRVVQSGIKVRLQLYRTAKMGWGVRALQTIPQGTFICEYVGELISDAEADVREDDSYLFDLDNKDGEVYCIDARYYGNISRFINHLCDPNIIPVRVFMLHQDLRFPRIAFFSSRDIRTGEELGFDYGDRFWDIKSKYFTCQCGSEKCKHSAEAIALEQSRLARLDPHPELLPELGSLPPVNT

MCF7 [11] = experiment: Induction of apoptosis in human MCF7 cells assessed as late apoptotic cells at 15 uM after 48 hrs by AnnexinV-FITC staining based flow cytometry (reference value: 7.6 +/- 5.9 %); assay type: functional
MSTO-211H = experiment: Antiproliferative activity against human MSTO-211H cells after 48 to 72 hrs by MTT assay; assay type: functional, cell-based
MCF7 [12] = experiment: Inhibition of DNA methylation in human MCF7 cells assessed as decrease in methylation of RARbeta DNA by qPCR method; assay type: cell-based
MCF7 [13] = experiment: Induction of apoptosis in human MCF7 cells assessed as early apoptotic cells at 15 uM after 48 hrs by AnnexinV-FITC staining based flow cytometry (reference value: 7.8 +/- 5.3 %); assay type: functional
[14] = target: T1, Histone-lysine N-methyltransferase EHMT2 (Homo sapiens); experiment: Inhibition of G9a in human MCF7 nuclear extracts assessed as reduction in H3K9 levels at 15 uM after 48 hrs; assay type: cell-based
MCF7 [15] = experiment: Induction of apoptosis in human MCF7 cells assessed as early apoptotic cells at 15 uM after 72 hrs by AnnexinV-FITC staining based flow cytometry (reference value: 20.1 +/- 7.3 %); assay type: functional
[16] = Antiproliferative activity against human H460 cells after 48 to 72 hrs by MTT assay; assay type: functional, cell-based; conditions: NCI-H460
MCF7 [17] = experiment: Inhibition of DNA methylation in human MCF7 cells assessed as decrease in 5-methylcytosine level by ELISA; assay type: cell-based
MCF7 [18] = experiment: Induction of apoptosis in human MCF7 cells assessed as necrotic cells at 15 uM after 72 hrs by AnnexinV-FITC staining based flow cytometry (reference value: 7.6 +/- 1 %); assay type: functional
MCF7 [19] = experiment: Induction of apoptosis in human MCF7 cells assessed as late apoptotic cells at 15 uM after 72 hrs by AnnexinV-FITC staining based flow cytometry (reference value: 11.8 +/- 2.2 %); assay type: functional
MCF7 [20] = experiment: Inhibition of DNA methylation in human MCF7 cells assessed as reduction in H3K27me3 levels at 15 uM after 48 hrs by Western blot analysis; assay type: cell-based
MCF7 [21] = experiment: Induction of apoptosis in human MCF7 cells assessed as viable cells at 15 uM after 48 hrs by AnnexinV-FITC staining based flow cytometry (reference value: 74.4 +/- 9.1 %); assay type: functional; conditions: MCF7, 48 h, read-out: Activity
MCF7 [22] = experiment: Cell cycle arrest in human MCF7 cells assessed as accumulation at G0/G1 phase at 15 uM after 24 hrs by flow cytometry relative to control; assay type: functional
MCF7 [23] = experiment: Inhibition of DNA methylation in human MCF7 cells assessed as reduction in H3K9me3 levels at 3 uM after 48 hrs by Western blot analysis; assay type: cell-based
MCF7 [24] = experiment: Inhibition of DNA methylation in human MCF7 cells assessed as reduction in H3K27me3 levels at 3 uM after 48 hrs by Western blot analysis; assay type: cell-based

| Compound | viability at 20 µM [1] | viability at 20 µM [2] | viability at 20 µM [3] | viability at 20 µM [4] | IC50 (MCF7 [6]) | inhibition (MCF7 [7]) | Activity (MCF7 [8]) | viability at 15 µM (MCF7 [9]) | inhibition [10] | Activity (MCF7 [11]) | IC50 (MSTO-211H) | inhibition (MCF7 [12]) | Activity (MCF7 [13]) | inhibition [14] | Activity (MCF7 [15]) | IC50 [16] | inhibition (MCF7 [17]) | Activity (MCF7 [18]) | Activity (MCF7 [19]) | viability at 15 µM (MCF7 [21]) | further results |
| --- | --- | --- | --- | --- | --- | --- | --- | --- | --- | --- | --- | --- | --- | --- | --- | --- | --- | --- | --- | --- | --- |
| Cc1nc(Nc2ncc(C(=O)Nc3c(C)cccc3Cl)s2)cc(N2CCN(CCO)CC2)n1 [DASATINIB] | 20.5% | 58.7% | 73.1% | 38.3% | – | – | – | – | – | – | – | – | – | – | – | – | – | – | – | – | – |
| CN1CCN(C(=O)[C@H]2Cc3c([nH]c4ccccc34)[C@@H]3N(C)c4ccccc4C(=O)N23)CC1 | 56.7% | 87.7% | 84.2% | 77.3% | 34.8 µM | 70% | 9.6% | 54.7% | Active | 12.2% | 6.6 µM | Active | 13.6% | Active | 23.3% | 9.05 µM | Active | 6.2% | 15.8% | 64.6% | Activity (MCF7 [5]): Active; inhibition (MCF7 [20]): 30% |
| CCN(CC)CCNC(=O)c1c(C)[nH]c(/C=C2\C(=O)Nc3ccc(F)cc32)c1C [SUNITINIB] | 2.6% | 54.2% | 73.7% | 9.8% | – | – | – | – | – | – | – | – | – | – | – | – | – | – | – | – | – |
| CCCCN1C(=O)[C@H]2Cc3c([nH]c4ccccc34)CN2C1=O | 78% | 86.4% | 91.2% | 64.7% | 32.3 µM | 50% | 6.4% | 61.2% | inactive | 11% | > 20 µM | Active | 12.2% | Active | 19.5% | > 20 µM | Active | 7.2% | 12.1% | 70.4% | inhibition (MCF7 [20]): 60%; Activity (MCF7 [22]): 3% |
| CCCCN1C(=O)[C@H]2Cc3c(n(CO)c4ccccc34)CN2C1=O | 56% | 82.2% | 101% | 67.8% | 30.7 µM | 40% | 8.5% | 52.1% | Active | 12.1% | > 20 µM | Active | 8.3% | Active | 25.5% | > 20 µM | Active | 7.2% | 15.2% | 71.1% | inhibition (MCF7 [20]): 20%; Activity (MCF7 [22]): 3% |
| Cc1ccc(-c2cn3c(n2)sc2ccccc23)cc1 | 77.1% | 80.1% | 90.3% | 70.2% | 30.4 µM | inactive | 8.1% | 45.2% | inactive | 11.8% | > 20 µM | inactive | 18.7% | Active | 29% | > 20 µM | inactive | 4.8% | 21% | 61.4% | Activity (MCF7 [5]): Active; inhibition (MCF7 [20]): inactive |
| COc1cc2nc(N3CCCN(C)CC3)nc(NC3CCN(Cc4ccccc4)CC3)c2cc1OC | 50.2% | 73% | 86.2% | 57% | – | – | 6.3% | 65.8% | Active | 13.8% | – | – | 12.6% | Active | 13.5% | – | – | 6.3% | 14.3% | 67.2% | inhibition (MCF7 [23]): 80%; inhibition (MCF7 [24]): 25% |
| CN1C(=O)[C@@]23C[C@]4([C@]56C[C@@]78SS[C@@](CO)(C(=O)N7[C@H]5Nc5ccccc56)N(C)C8=O)c5ccccc5N[C@@H]4N2C(=O)[C@]1(CO)SS3 [CHAETOCIN] | -2.63% | -4.22% | 67.8% | -3.25% | – | – | – | – | – | – | – | Active | – | – | – | – | – | – | – | – | – |
| N[C@@H]1C[C@H]1c1ccccc1.N[C@H]1C[C@@H]1c1ccccc1 [TRANYLCYPROMINE] | 60.6% | 93.6% | 102% | 77.5% | – | – | – | – | – | – | – | – | – | – | – | – | – | – | – | – | – |
| CCCCN1C(=O)[C@@H]2Cc3c(n(CO)c4ccccc34)CN2C1=O | 71.8% | 93.8% | 96% | 91.8% | 38.7 µM | 50% | 4.1% | 58.6% | Active | 13.5% | > 20 µM | Active | 13.1% | Active | 20.6% | > 20 µM | Active | 7.1% | 13.7% | 69.4% | inhibition (MCF7 [20]): 40%; Activity (MCF7 [22]): 3% |
| C#Cc1cccc(Nc2ncnc3cc(OCCOC)c(OCCOC)cc23)c1 [ERLOTINIB] | 27.7% | 75.3% | 94.5% | 24.7% | – | – | – | – | – | – | – | – | – | – | – | – | – | – | – | – | – |
| C#CCN(C)Cc1ccccc1 [PARGYLINE] | 85% | 59.1% | 96.7% | 77.7% | – | – | – | – | – | – | – | – | – | – | – | – | – | – | – | – | – |
